#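 How tested: cells in 96-well plates exposed to compound for 48 hours at five concentrations. GI50: concentration for 50% inhibition of growth.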 Calls of active or inactive are those of the source. Rule as the data show it: active = GI50 up to about 1.1 µM and inactive = higher.
# What was measured:
# Assay in all cases: DTP human tumour cell line panel, 48 h
# A498 = test system: A498
# A549 = test system: A549
# BT-549 = test system: BT-549
# HL-60 = test system: HL-60
# HT-29 = test system: HT-29
# KM12 = test system: KM12
# LOX IMVI = test system: LOX IMVI
# MCF7 = test system: MCF7
# MDA-MB-231 = test system: MDA-MB-231
# NCI-H226 = test system: NCI-H226
# OVCAR-3 = test system: OVCAR-3
# OVCAR-8 = test system: OVCAR-8
# SF-268 = test system: SF-268
# SK-OV-3 = test system: SK-OV-3
# SNB-19 = test system: SNB-19
# SNB-75 = test system: SNB-75
# SW-620 = test system: SW-620
# T47D = test system: T47D
# UO-31 = test system: UO-31
# DMS-273 = test system: DMS-273
Structure (SMILES),GI50 (A498),GI50 (A549),GI50 (BT-549),GI50 (HL-60),GI50 (HT-29),GI50 (KM12),GI50 (LOX IMVI),GI50 (MCF7),GI50 (MDA-MB-231),GI50 (NCI-H226),GI50 (OVCAR-3),GI50 (OVCAR-8),GI50 (SF-268),GI50 (SK-OV-3),GI50 (SNB-19),GI50 (SNB-75),GI50 (SW-620),GI50 (T47D),GI50 (UO-31),GI50 (DMS-273)
OC(Cc1cccnc1)(c1ccccc1)c1ccccc1,> 100 µM (inactive),> 100 µM (inactive),73.6 µM (inactive),55.5 µM (inactive),> 100 µM (inactive),59.7 µM (inactive),> 100 µM (inactive),> 100 µM (inactive),> 100 µM (inactive),> 100 µM (inactive),> 100 µM (inactive),> 100 µM (inactive),> 100 µM (inactive),> 100 µM (inactive),> 100 µM (inactive),> 100 µM (inactive),> 100 µM (inactive),59 µM (inactive),> 100 µM (inactive),–
O=C(Nc1ccc([N+](=O)[O-])cc1)Nn1cnnc1,34.1 µM (inactive),67.3 µM (inactive),20.8 µM (inactive),> 100 µM (inactive),26.2 µM (inactive),26.1 µM (inactive),96.8 µM (inactive),73.6 µM (inactive),> 10 µM (inactive),< 0.01 µM (active),12.2 µM (inactive),27.3 µM (inactive),42 µM (inactive),> 100 µM (inactive),57 µM (inactive),> 100 µM (inactive),89.7 µM (inactive),24 µM (inactive),53.1 µM (inactive),–
CSc1nnnc2ccccc12,> 100 µM (inactive),> 100 µM (inactive),> 100 µM (inactive),> 100 µM (inactive),> 100 µM (inactive),> 100 µM (inactive),> 100 µM (inactive),51.4 µM (inactive),> 100 µM (inactive),> 100 µM (inactive),> 100 µM (inactive),> 100 µM (inactive),> 100 µM (inactive),> 100 µM (inactive),> 100 µM (inactive),> 100 µM (inactive),> 100 µM (inactive),85.1 µM (inactive),> 100 µM (inactive),–
COc1ccc(-c2cc(-c3ccccc3)n(C3OCC(OC(C)=O)C(OC(C)=O)C3OC(C)=O)c(=S)c2C#N)cc1 (stereo not given),72.9 µM (inactive),> 100 µM (inactive),> 100 µM (inactive),> 100 µM (inactive),> 100 µM (inactive),85.3 µM (inactive),> 100 µM (inactive),> 100 µM (inactive),> 100 µM (inactive),20 µM (inactive),> 100 µM (inactive),> 100 µM (inactive),> 100 µM (inactive),66.1 µM (inactive),> 100 µM (inactive),> 100 µM (inactive),> 100 µM (inactive),78.7 µM (inactive),28.6 µM (inactive),–
CC(=O)OC(CC(C)C)P1(=O)N(CC(C)(C)C)[C@@H]2CCCC[C@H]2N1CC(C)(C)C (stereo not given in full),7.06 µM (inactive),5.42 µM (inactive),15.5 µM (inactive),5.71 µM (inactive),7.1 µM (inactive),9.66 µM (inactive),11.9 µM (inactive),6.35 µM (inactive),7.24 µM (inactive),10.4 µM (inactive),9.23 µM (inactive),8.2 µM (inactive),15.1 µM (inactive),15.1 µM (inactive),9.29 µM (inactive),7.55 µM (inactive),11.3 µM (inactive),5.36 µM (inactive),8.65 µM (inactive),–
CC(=O)C(=[N+]=[N-])C(=O)N1CCOC1=O,> 10 µM (inactive),> 10 µM (inactive),> 10 µM (inactive),> 10 µM (inactive),> 10 µM (inactive),> 10 µM (inactive),> 10 µM (inactive),> 10 µM (inactive),> 10 µM (inactive),> 10 µM (inactive),> 10 µM (inactive),> 10 µM (inactive),> 10 µM (inactive),> 10 µM (inactive),> 10 µM (inactive),> 10 µM (inactive),> 10 µM (inactive),> 10 µM (inactive),> 10 µM (inactive),–
CCOC(=O)NC(Nc1ccc(OC(F)(F)F)cc1)(C(F)(F)F)C(F)(F)F,> 100 µM (inactive),> 100 µM (inactive),> 100 µM (inactive),> 100 µM (inactive),> 100 µM (inactive),> 100 µM (inactive),> 100 µM (inactive),> 100 µM (inactive),> 100 µM (inactive),> 100 µM (inactive),> 100 µM (inactive),> 100 µM (inactive),> 100 µM (inactive),> 100 µM (inactive),> 100 µM (inactive),> 100 µM (inactive),> 100 µM (inactive),> 100 µM (inactive),> 100 µM (inactive),–
N#Cc1c(N)n(-c2nc3ccccc3s2)c(=O)c2cc([N+](=O)[O-])ccc12,17.1 µM (inactive),14.6 µM (inactive),21.2 µM (inactive),7.74 µM (inactive),3.5 µM (inactive),19.7 µM (inactive),7.03 µM (inactive),7.21 µM (inactive),15.6 µM (inactive),6.93 µM (inactive),14.8 µM (inactive),16.8 µM (inactive),15 µM (inactive),25.4 µM (inactive),17.7 µM (inactive),14.9 µM (inactive),26.2 µM (inactive),21.8 µM (inactive),21.7 µM (inactive),–
CCCCn1c(C)c2c(c1C)C(=O)N(CCN1CCN(c3ccccc3Cl)CC1)C2=O,39 µM (inactive),38.2 µM (inactive),17.3 µM (inactive),22.1 µM (inactive),16.4 µM (inactive),31.5 µM (inactive),16.5 µM (inactive),32.4 µM (inactive),51.2 µM (inactive),36.9 µM (inactive),50.7 µM (inactive),44.9 µM (inactive),17.6 µM (inactive),21.6 µM (inactive),92.3 µM (inactive),31.6 µM (inactive),37.5 µM (inactive),22.5 µM (inactive),17.6 µM (inactive),–
CC1(C)N=C(N)N=C(N)N1c1cccc(OCc2cccc(N)c2)c1,> 93.1 µM (inactive),7.21 µM (inactive),> 65.9 µM (inactive),5.61 µM (inactive),16.9 µM (inactive),49.9 µM (inactive),9.46 µM (inactive),39.9 µM (inactive),> 71.4 µM (inactive),> 100 µM (inactive),39.6 µM (inactive),> 83 µM (inactive),14.3 µM (inactive),> 100 µM (inactive),23.8 µM (inactive),> 100 µM (inactive),> 100 µM (inactive),> 100 µM (inactive),> 100 µM (inactive),–
C=C1C(=O)O[C@@H]2[C@@H]3O[C@@H](C[C@@H]13)[C@](C)(O)CC/C=C(\C)CCC[C@@H]2C,13.2 µM (inactive),17.4 µM (inactive),12.6 µM (inactive),2.8 µM (inactive),17.3 µM (inactive),16.3 µM (inactive),4.75 µM (inactive),7.48 µM (inactive),16.6 µM (inactive),19.7 µM (inactive),12.5 µM (inactive),6.7 µM (inactive),16.9 µM (inactive),19.3 µM (inactive),15.1 µM (inactive),11.8 µM (inactive),5.46 µM (inactive),18.7 µM (inactive),10.8 µM (inactive),–
CCC(=C(C#N)C#N)c1cc(OC)c(OC)c(OC)c1,–,> 100 µM (inactive),–,22.1 µM (inactive),> 100 µM (inactive),> 100 µM (inactive),> 100 µM (inactive),–,–,> 100 µM (inactive),> 100 µM (inactive),> 100 µM (inactive),> 100 µM (inactive),> 100 µM (inactive),> 100 µM (inactive),–,> 100 µM (inactive),–,> 100 µM (inactive),> 100 µM (inactive)
CC1(C)Cc2c(C#N)c(N)c3c(c2CO1)C(=O)OC3=O,–,> 100 µM (inactive),–,> 100 µM (inactive),> 100 µM (inactive),> 100 µM (inactive),> 100 µM (inactive),–,–,> 100 µM (inactive),> 100 µM (inactive),> 100 µM (inactive),> 100 µM (inactive),> 100 µM (inactive),> 100 µM (inactive),–,> 100 µM (inactive),–,> 100 µM (inactive),> 100 µM (inactive)
C=CCOc1cccc(C2(O)c3ccccc3C3=NCCCN32)c1 (stereo not given),21.8 µM (inactive),5.6 µM (inactive),> 100 µM (inactive),1.47 µM (inactive),8.57 µM (inactive),7.48 µM (inactive),14.5 µM (inactive),16.8 µM (inactive),57 µM (inactive),3.38 µM (inactive),1.25 µM (inactive),14.4 µM (inactive),54.7 µM (inactive),37.7 µM (inactive),2.45 µM (inactive),5.06 µM (inactive),11.9 µM (inactive),17.4 µM (inactive),13.8 µM (inactive),–
CC(C)=CCC[C@@H](C)C1=CC(=O)C(C)=C(O)C1=O [ISOPEREZONE],17 µM (inactive),12.3 µM (inactive),5.78 µM (inactive),0.3 µM (active),7.16 µM (inactive),5.09 µM (inactive),2.83 µM (inactive),3.62 µM (inactive),6.38 µM (inactive),7.19 µM (inactive),4.19 µM (inactive),2.15 µM (inactive),10.4 µM (inactive),17.9 µM (inactive),15.9 µM (inactive),4.5 µM (inactive),4.02 µM (inactive),2.13 µM (inactive),3.69 µM (inactive),–

# Source: ChEMBL document CHEMBL1201862, “PubChem BioAssay data set” (2004)
